Test results taken from article PMC8006935, “Study of Combinatorial Drug Synergy of Novel Acridone Derivatives With Temozolomide Using in-silico and in-vitro Methods in the Treatment of Drug-Resistant Glioma” (Frontiers in Oncology, 2021).
Like-named read-outs stand apart in the source and are kept apart here.

Columns and labels:
[1] = system: U-87 (Uppsala 87) Glioma cell lines; test: Sulforhodamine B assay, U-87 drug sensitive Glioma cells; format: cell-based; details: for IC50: 72 h, SRB, Mean ± Standard Deviations in Table 4, read-out: U-87/WT IC50; for U-87/WT SI: SI = CC50 of Vero cell line /IC50 of Cancer cell line after 72 h
Experimental: (§1) In order to test the growth inhibition potential of the TMZ and Acridone derivatives on Glioma, the U-87 (Uppsala 87) Glioma cell lines and T-98 (Temozolomide resistant) Glioma cell lines were treated with Temozolomide (TMZ) and Acridone derivatives AC2, AC7, and AC26. The African Green Monkey Kidney Vero cell lines were used as control for the study. The Vero cell lines were obtained from the National Center for Cell Sciences (NCCS), Pune, while the U-87 and T-98 cell lines were carried in the lab of Dr. GJ Peters, Cancer Center Amsterdam (CCA), VU University Medical Center, Amsterdam, Netherlands. The Mycoplasma testing was done by using the Universal Mycoplasma Detection Kit (ATCC® 30-1012K™) every 6 months. The Vero cell lines have been used as control as they are normal kidney epithelial cells and are non-cancerous in nature. The Vero cell lines have been routinely used for testing cytotoxicity of small molecules by various researchers ([22], [23]). Also, in our previous study, Vero cell lines have been used for testing safety and efficacy of Acridone derivatives for Lung, Cervical, and Breast Cancer studies ([13]).
(§2) Cell viability was found using the Sulforhodamine B (SRB) assay to measure the cellular protein content which provides better sensitivity in comparison to MTT assay ([24]). Moreover, as this method is dependent on the property of the SRB dye, it acts by binding to proteins under slightly acidic conditions and can be exposed to basic conditions for its extraction. The resulting amount of bound dye is then utilized as a proxy for cell mass ([25]). This cell mass can then be extrapolated to measure cell growth.
(§3) Glioma cells were cultured in Gibco (RPMI 1640) complemented with 10% fetal calf serum (Gibco). The cultures were then treated with trypsin-EDTA in order to detach/separate the cells from their culture flasks. The quickly proliferating cells were harvested, counted and plated at suitable concentrations in 96-well microplates. These microplates were subsequently incubated for 24 h. After incubation, drug compounds were dissolved in the culture media and placed in 96 well plates in triplicates, which were again incubated at 37°C under 5% CO2 for 72 h. 72 h later, the plates were removed and the cells were treated with cold Trichloroacetic acid (TCA) to fix the cultures and. 0.4% of SRB dissolved in 1% acetic acid was then added to the culture in order to stain the cells. Next, the bound stain was dissolved in 150 μl of 10 mM unbuffered Tris base left on a gyrator shaker. Thereafter, absorbance of the solution was measured at 540 nm utilizing a microplate reader. Absorbance readings (triplicate values) recorded were used to calculate percentage growth inhibition due to the effect of drugs using the following equations.
(§4) % Cell growth = Absorbance sample/Absorbance of control or untreated × 100
(§5) % Growth inhibition = 100 - % cell growth
(§6) The IC50 was calculated based on the log graph sheet which was developed in-house at the CCA, VU University Medical Center.
(§7) Selectivity Index (SI) is a ratio that measures the window between cytotoxicity and anticancer activity of the drugs ([26]). […] Here, IC50 is the inhibition concentration for inhibiting 50% of cancer cells and CC50 is cytotoxic concentration causing death of 50% viable cells in the host.

[2] = system: T-98 (Temozolomide resistant) Glioma cell lines; test: Sulforhodamine B assay, T-98 TMZ resistant Glioma cells; format: cell-based; details: for IC50: Glioma cell; for T-98/TMZRES SI: SI = CC50 of Vero cell line /IC50 of Cancer cell line after 72 h
Experimental: as §1, §2, §3, §4, §5, §6, §7

[3] = earlier studies, no reference given; cited from earlier work
[4] = 72 h, SRB, Mean ± Standard Deviations in Table 4, read-out: T-98/TMZRES IC50
[5] = drug administered individually, drug resistant cells, read-out: Initial IC50

Compound | IC50 ([1]; listed as Acridone 26) [nM] | U-87/WT SI [1] | IC50 ([1]; U87WT) [nM] | IC50 [2, 4] [nM] | IC50 [2, 5] [nM] | T-98/TMZRES SI [2] | cardiotoxicity, nephrotoxicity and necrosis [3] | liver histopathology [3]
CC(=NNC(=O)c1cccc2c(=O)c3ccccc3[nH]c12)c1ccccc1O [AC26, N'(1-(2-hydroxyphenyl)ethylidene)-9-oxo-9,10-dihydroacridine-4-carbohydrazide] | 1000 | 73.42 | 900 ± 100 | 760 ± 53 | 760 | 86.94 | no cardiotoxicity, nephrotoxicity and necrosis | minimal hyperchromatic, anaplasia, and cellular infiltration
O=C(NN=CC=Cc1ccccc1)c1cccc2c(=O)c3ccccc3[nH]c12 [AC2, 9-oxo-N'-(3-phenylallylidene)-9,10-dihydroacridine-4-carbohydrazide] | – | 36.73 | 1530 ± 850 | 1530 ± 250 | 1530 | 36.73 | no cardiotoxicity, nephrotoxicity and necrosis | minimal hyperchromatic, anaplasia, and cellular infiltration
O=C(NN=Cc1ccccc1Cl)c1cccc2c(=O)c3ccccc3[nH]c12 [AC7, N'-(2-chlorobenzylidene)-9-oxo-9,10-dihydroacridine-4-carbohydrazide] | – | 8.49 | 5670 ± 580 | 1050 ± 180 | 1050 | 45.87 | no cardiotoxicity, nephrotoxicity and necrosis | minimal hyperchromatic, anaplasia, and cellular infiltration
